Measurements: patent publication US20250344698A1, “A METHOD OF CONTROLLING WEEDS” (SYNGENTA CROP PROTECTION AG, priority 2022, published 2025)

System: A. tuberculatus, about 60-70% of which contain the ΔG210 mutation
Assay: Field trial, Illinois USA, visual % weed control
Type: in vivo, Amaranthus tuberculatus
Details: visually assessed 14 days after application

COC(=O)CCNC(=O)C(C)Sc1cc(-n2c(=O)cc(C(F)(F)F)n(C)c2=O)c(F)cc1Cl (stereo not drawn) [Tiafenacil]
Control (%) (use rate 50 g ai/ha): 33%
Control (%) (use rate 100 g ai/ha): 30%
Control (%) (use rate 150 g ai/ha): 33%
